Assay results as given in patent US20240166652A1, “MODULATORS OF THE INTEGRATED STRESS PATHWAY” (Calico Life Sciences LLC, priority 2017, published 2024).

Each molecule was assayed on ATF4 luciferase reporter in HEK293T cells (assay: ATF4-Luc assay (ATF4 luciferase reporter, tunicamycin-treated HEK293T cells)). Details: Homo sapiens, HEK-293T; HEK293T cells carrying the ATF4 luciferase reporter, 1 μg/mL tunicamycin, 7 hours.
Format: cell-based, human

For `O=C(COc1cc(F)c2cn[nH]c2c1)NC12CCC(NC(=O)COc3ccc(Cl)c(F)c3)(CC1)[C@@H](O)C2` [Compound 727, 2-(4-chloro-3-fluorophenoxy)-N-[(2S)-4-{2-[(4-fluoro-1H-indazol-6-yl)oxy]acetamido}-2-hydroxybicyclo[2.2.2]octan-1-yl]acetamide], which EC50 is on record?
The EC50 was < 10 nM.

How did the EC50 turn out when `O=C(COc1cc(F)c2cn[nH]c2c1)NC12CCC(NC(=O)COc3ccc(F)c(F)c3)(CC1)[C@@H](O)C2` [Compound 728, 2-(3,4-difluorophenoxy)-N-[(2S)-4-{2-[(4-fluoro-1H-indazol-6-yl)oxy]acetamido}-2-hydroxybicyclo[2.2.2]octan-1-yl]acetamide] was run?
Its EC50 is < 10 nM.

Which EC50 does the source give for `O=C(CCOc1ccc(Cl)c(F)c1)NC12CCC(NC(=O)COc3ccc(Cl)cc3)(CC1)CC2` [Compound 729, 3-(4-chloro-3-fluorophenoxy)-N-{4-[2-(4-chlorophenoxy)acetamido]bicyclo[2.2.2]octan-1-yl}propanamide] here?
The EC50 was 50 to 250 nM.

`O=C(CCOc1ccc(Cl)c(F)c1)NC12CC(NC(=O)COc3ccc(Cl)c(F)c3)(C1)C2` [Compound 730, 3-(4-chloro-3-fluorophenoxy)-N-{3-[2-(4-chloro-3-fluorophenoxy)acetamido]bicyclo[1.1.1]pentan-1-yl}propanamide] was tested. Which EC50 did it give?
The EC50 was 10 to 50 nM.

Which EC50 does the source give for `Cc1ccc(OCC(=O)NC23CCC(NC(=O)COc4ccc(F)cc4)(CC2)[C@@H](O)C3)cc1F` [Compound 731, 2-(3-fluoro-4-methylphenoxy)-N-{(3S)-4-[2-(4-fluorophenoxy)acetamido]-3-hydroxybicyclo[2.2.2]octan-1-yl}acetamide] here?
Its EC50 is < 10 nM.

`Cc1ccc(OCC(=O)NC23CCC(NC(=O)COc4ccc(Cl)cc4)(CC2)[C@@H](O)C3)cc1F` [Compound 732, 2-(4-chlorophenoxy)-N-{(2S)-4-[2-(3-fluoro-4-methylphenoxy)acetamido]-2-hydroxybicyclo[2.2.2]octan-1-yl}acetamide] was tested. Which EC50 did it give?
Its EC50 is < 10 nM.

`Cc1ccc(OCC(=O)NC23CCC(NC(=O)COc4ccc(OC(F)(F)F)c(F)c4)(CC2)[C@@H](O)C3)cc1F` [Compound 733, 2-(3-fluoro-4-methylphenoxy)-N-[(3S)-4-{2-[3-fluoro-4-(trifluoromethoxy)phenoxy]acetamido}-3-hydroxybicyclo[2.2.2]octan-1-yl]acetamide] was tested. Which EC50 did it give?
Its EC50 is < 10 nM.

`Cc1ccc(OCC(=O)NC23CCC(NC(=O)COc4ccc(F)c(F)c4)(CC2)[C@@H](O)C3)cc1F` [Compound 734, 2-(3,4-difluorophenoxy)-N-{(2S)-4-[2-(3-fluoro-4-methylphenoxy)acetamido]-2-hydroxybicyclo[2.2.2]octan-1-yl}acetamide] was tested. Which EC50 did it give?
The EC50 was < 10 nM.

How did the EC50 turn out when `Cc1ccc(OCC(=O)NC23CCC(NC(=O)COc4cc(F)c5cn[nH]c5c4)(CC2)[C@@H](O)C3)cc1F` [Compound 735] was run?
Its EC50 is < 10 nM.

How did the EC50 turn out when `Cc1ccc(OCC(=O)NC23CCC(NC(=O)COc4ccc(OC(F)(F)F)cc4)(CC2)[C@@H](O)C3)cc1F` [Compound 736, 2-(3-fluoro-4-methylphenoxy)-N-[(3S)-3-hydroxy-4-{2-[4-(trifluoromethoxy)phenoxy]acetamido}bicyclo[2.2.2]octan-1-yl]acetamide] was run?
Its EC50 is < 10 nM.

`Cc1ccc(OCC(=O)NC23CCC(NC(=O)COc4ccc(Cl)c(F)c4)(CC2)[C@@H](O)C3)cc1F` [Compound 737, 2-(4-chloro-3-fluorophenoxy)-N-{(2S)-4-[2-(3-fluoro-4-methylphenoxy)acetamido]-2-hydroxybicyclo[2.2.2]octan-1-yl}acetamide] was tested. Which EC50 did it give?
The EC50 was < 10 nM.

For `O=C(COc1ccc(Cl)c(F)c1)NC12CCC(NC(=O)COc3cc(F)c4cn[nH]c4c3)(CC1)[C@@H](O)C2` [Compound 738, 2-(4-chloro-3-fluorophenoxy)-N-[(3S)-4-{2-[(4-fluoro-1H-indazol-6-yl)oxy]acetamido}-3-hydroxybicyclo[2.2.2]octan-1-yl]acetamide], which EC50 is on record?
Its EC50 is < 10 nM.

Which EC50 does the source give for `O=C(COc1ccc(Cl)cc1)NC12CCC(NC(=O)COc3cc(F)c4cn[nH]c4c3)(CC1)CC2` [Compound 739, 2-(4-chlorophenoxy)-N-(4-{2-[(4-fluoro-1H-indazol-6-yl)oxy]acetamido}bicyclo[2.2.2]octan-1-yl)acetamide] here?
Its EC50 is < 10 nM.

With `O=C(COc1ccc(Cl)cc1)NC12CCC(NC(=O)COc3ccc(F)c(F)c3)(CC1)CC2` [Compound 740, 2-(4-chlorophenoxy)-N-{4-[2-(3,4-difluorophenoxy)acetamido]bicyclo[2.2.2]octan-1-yl}acetamide] as the molecule, how does the EC50 read?
The EC50 was 10 to 50 nM.

For `O=C(COc1ccc(Cl)cc1)NC12CCC(NC(=O)COc3ccc(OC(F)(F)F)c(F)c3)(CC1)CC2` [Compound 741, 2-(4-chlorophenoxy)-N-(4-{2-[3-fluoro-4-(trifluoromethoxy)phenoxy]acetamido}bicyclo[2.2.2]octan-1-yl)acetamide], which EC50 is on record?
The EC50 was 10 to 50 nM.

Which EC50 does the source give for `O=C(COc1ccc(Cl)cc1)NC12CCC(NC(=O)COc3ccc4c(c3)OC(F)(F)O4)(CC1)CC2` [Compound 742, 2-(4-chlorophenoxy)-N-(4-{2-[(2,2-difluoro-2H-1,3-benzodioxol-5-yl)oxy]acetamido}bicyclo[2.2.2]octan-1-yl)acetamide] here?
Its EC50 is < 10 nM.

How did the EC50 turn out when `O=C(COc1ccc(Cl)cc1)NC12CCC(NC(=O)COc3ccc(F)c(Cl)c3)(CC1)CC2` [Compound 743, 2-(3-chloro-4-fluorophenoxy)-N-{4-[2-(4-chlorophenoxy)acetamido]bicyclo[2.2.2]octan-1-yl}acetamide] was run?
Its EC50 is < 10 nM.

With `O=C(COc1ccc(Cl)cc1)NC12CCC(NC(=O)COc3ccc(Cl)cc3)(CC1)CC2` [Compound 744, N,N′-(bicyclo[2.2.2]octane-1,4-diyl)bis[2-(4-chlorophenoxy)acetamide]] as the molecule, how does the EC50 read?
Its EC50 is < 10 nM.

Which EC50 does the source give for `Cc1ccc(OCC(=O)NC23CCC(NC(=O)COc4ccc5c(C)n[nH]c5c4)(CC2)[C@@H](O)C3)cc1` [Compound 746, N-{(2S)-2-hydroxy-4-[2-(4-methylphenoxy)acetamido]bicyclo[2.2.2]octan-1-yl}-2-[(3-methyl-1H-indazol-6-yl)oxy]acetamide] here?
Its EC50 is 10 to 50 nM.

How did the EC50 turn out when `Cc1n[nH]c2cc(OCC(=O)NC34CCC(NC(=O)COc5ccc(OC(F)(F)F)c(F)c5)(CC3)C[C@@H]4O)ccc12` [Compound 747, 2-[3-fluoro-4-(trifluoromethoxy)phenoxy]-N-[(3S)-3-hydroxy-4-{2-[(3-methyl-1H-indazol-6-yl)oxy]acetamido}bicyclo[2.2.2]octan-1-yl]acetamide] was run?
Its EC50 is 10 to 50 nM.

How did the EC50 turn out when `O=C(COc1ccc(Cl)c(F)c1)NC12CCC(NC(=O)CNc3ccc(Cl)c(F)c3)(CC1)[C@@H](O)C2` [Compound 748, 2-(4-chloro-3-fluoroanilino)-N-{(2S)-4-[2-(4-chloro-3-fluorophenoxy)acetamido]-2-hydroxybicyclo[2.2.2]octan-1-yl}acetamide] was run?
Its EC50 is 10 to 50 nM.

With `Cc1n[nH]c2cc(OCC(=O)NC34CCC(NC(=O)COc5ccc(Cl)c(F)c5)(CC3)C[C@@H]4O)ccc12` [Compound 749, 2-(4-chloro-3-fluorophenoxy)-N-[(3S)-3-hydroxy-4-{2-[(3-methyl-1H-indazol-6-yl)oxy]acetamido}bicyclo[2.2.2]octan-1-yl]acetamide] as the molecule, how does the EC50 read?
Its EC50 is < 10 nM.

How did the EC50 turn out when `O=C(COc1ccc(Cl)c(F)c1)NC12CCC(NC(=O)COc3ccc(OC(F)(F)F)c(F)c3)(CC1)[C@@H](O)C2` [Compound 750, 2-(4-chloro-3-fluorophenoxy)-N-[(3S)-4-{2-[3-fluoro-4-(trifluoromethoxy)phenoxy]acetamido}-3-hydroxybicyclo[2.2.2]octan-1-yl]acetamide] was run?
Its EC50 is < 10 nM.

Which EC50 does the source give for `CS(=O)(=O)c1cc(F)ccc1OCC(=O)NC12CCC(NC(=O)COc3ccc(Cl)c(F)c3)(CC1)[C@@H](O)C2` [Compound 751, 2-(4-chloro-3-fluorophenoxy)-N-[(2S)-4-{2-[4-fluoro-2-(methanesulfonyl)phenoxy]acetamido}-2-hydroxybicyclo[2.2.2]octan-1-yl]acetamide] here?
The EC50 was > 2000 nM.

Which EC50 does the source give for `CN1C(=O)COc2c(OCC(=O)NC34CCC(NC(=O)COc5ccc(Cl)c(F)c5)(CC3)[C@@H](O)C4)cc(Cl)cc21` [Compound 752, 2-(4-chloro-3-fluorophenoxy)-N-[(2S)-4-{2-[(6-chloro-4-methyl-3-oxo-3,4-dihydro-2H-1,4-benzoxazin-8-yl)oxy]acetamido}-2-hydroxybicyclo[2.2.2]octan-1-yl]acetamide] here?
The EC50 was 500 to 2000 nM.

For `Cc1ccnc(OCC(=O)NC23CCC(NC(=O)COc4ccc(Cl)c(F)c4)(CC2)C[C@@H]3O)n1` [Compound 753, 2-(4-chloro-3-fluorophenoxy)-N-[(3S)-3-hydroxy-4-{2-[(4-methylpyrimidin-2-yl)oxy]acetamido}bicyclo[2.2.2]octan-1-yl]acetamide], which EC50 is on record?
The EC50 was 250 to 500 nM.

Which EC50 does the source give for `O=C1COc2c(cc(Cl)cc2OCC(=O)NC23CCC(NC(=O)COc4ccc(Cl)c(F)c4)(CC2)[C@@H](O)C3)N1` [Compound 754, 2-(4-chloro-3-fluorophenoxy)-N-[(2S)-4-{2-[(6-chloro-3-oxo-3,4-dihydro-2H-1,4-benzoxazin-8-yl)oxy]acetamido}-2-hydroxybicyclo[2.2.2]octan-1-yl]acetamide] here?
Its EC50 is > 2000 nM.

For `Cc1cc(F)ccc1OCC(=O)NC12CCC(NC(=O)COc3ccc(Cl)c(F)c3)(CC1)[C@@H](O)C2` [Compound 755, 2-(4-chloro-3-fluorophenoxy)-N-{(2S)-4-[2-(4-fluoro-2-methylphenoxy)acetamido]-2-hydroxybicyclo[2.2.2]octan-1-yl}acetamide], which EC50 is on record?
Its EC50 is < 10 nM.

`COc1cc(OCC(=O)NC23CCC(NC(=O)COc4ccc(F)c(F)c4)(CC2)[C@@H](O)C3)ccc1F` [Compound 756, 2-(3,4-difluorophenoxy)-N-{(2S)-4-[2-(4-fluoro-3-methoxyphenoxy)acetamido]-2-hydroxybicyclo[2.2.2]octan-1-yl}acetamide] was tested. Which EC50 did it give?
Its EC50 is < 10 nM.

For `COCc1cc(OCC(=O)NC23CCC(NC(=O)COc4ccc(Cl)c(F)c4)(CC2)[C@@H](O)C3)ccc1Cl` [Compound 757, 2-(4-chloro-3-fluorophenoxy)-N-[(2S)-4-{2-[4-chloro-3-(methoxymethyl)phenoxy]acetamido}-2-hydroxybicyclo[2.2.2]octan-1-yl]acetamide], which EC50 is on record?
The EC50 was 10 to 50 nM.

Which EC50 does the source give for `O=C(COc1ccc2c(c1)OCCO2)NC12CCC(NC(=O)COc3ccc(Cl)c(F)c3)(CC1)[C@@H](O)C2` [Compound 758, 2-(4-chloro-3-fluorophenoxy)-N-[(2S)-4-{2-[(2,3-dihydro-1,4-benzodioxin-6-yl)oxy]acetamido}-2-hydroxybicyclo[2.2.2]octan-1-yl]acetamide] here?
The EC50 was < 10 nM.
